Values joined by “and” are separate entries in the source; they are usually repeats but may differ in a detail not shown here. Identical values can stand only once. Toxic doses and inconclusive results are not listed. Cut-off read from the data, not from the text of the source: active = T/C of 150% or more; inactive = T/C below 125%.
Test system: L1210 leukemia ip in BDF1 mice, survival T/C
Assay: NCI In Vivo Anticancer Drug Screen. Data for tumor model L1210 Leukemia (intraperitoneal) in B6D2F1 (BDF1) mice
Settings: endpoint: mean survival time, higher = longer survival
Summary of the method: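 Transplantable tumor model; survival measured in treated vs vehicle control mice. Value = treated/control.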

[1] = dose: 100.0 mg/kg/injection, schedule: Q01DX001 (ip), vehicle: saline
[2] = dose: 200.0 mg/kg/injection, schedule: Q01DX001 (ip), vehicle: saline
[3] = dose: 400.0 mg/kg/injection, schedule: Q01DX001 (ip), vehicle: saline
[4] = dose: 100.0 mg/kg/injection, schedule: Q04DX003 (ip), vehicle: saline
[5] = dose: 200.0 mg/kg/injection, schedule: Q04DX003 (ip), vehicle: saline
[6] = dose: 400.0 mg/kg/injection, schedule: Q04DX003 (ip), vehicle: saline
[7] = dose: 100.0 mg/kg/injection, schedule: Q01DX001 (ip), vehicle: carboxymethylcellulose (CMC)
[8] = dose: 100.0 mg/kg/injection, schedule: Q04DX003 (ip), vehicle: saline with Tween-80
[9] = dose: 200.0 mg/kg/injection, schedule: Q01DX001 (ip), vehicle: carboxymethylcellulose (CMC)
[10] = dose: 200.0 mg/kg/injection, schedule: Q04DX003 (ip), vehicle: saline with Tween-80
[11] = dose: 400.0 mg/kg/injection, schedule: Q01DX001 (ip), vehicle: carboxymethylcellulose (CMC)
[12] = dose: 400.0 mg/kg/injection, schedule: Q04DX003 (ip), vehicle: saline with Tween-80
[13] = dose: 100.0 mg/kg/injection, schedule: Q01DX009 (ip), vehicle: Klucel (hydroxypropylcellulose) (HPC)
[14] = dose: 200.0 mg/kg/injection, schedule: Q01DX009 (ip), vehicle: Klucel (hydroxypropylcellulose) (HPC)
[15] = dose: 100.0 mg/kg/injection, schedule: Q04DX002 (ip), vehicle: Klucel (hydroxypropylcellulose) (HPC)
[16] = dose: 200.0 mg/kg/injection, schedule: Q04DX002 (ip), vehicle: Klucel (hydroxypropylcellulose) (HPC)
[17] = dose: 400.0 mg/kg/injection, schedule: Q04DX002 (ip), vehicle: Klucel (hydroxypropylcellulose) (HPC)
[18] = dose: 50.0 mg/kg/injection, schedule: Q01DX001 (ip), vehicle: carboxymethylcellulose (CMC)
[19] = dose: 100.0 mg/kg/injection, schedule: Q01DX009 (ip), vehicle: saline with Tween-80
[20] = dose: 200.0 mg/kg/injection, schedule: Q01DX009 (ip), vehicle: saline with Tween-80

Measured: T/C

COC(=O)C1C(=O)OC(C)(C)C1c1ccccc1 (stereo unspecified)
inactive: dose: 44.0 mg/kg/injection, schedule: Q01DX001 (ip), vehicle: saline 95 % of control | dose: 66.0 mg/kg/injection, schedule: Q01DX001 (ip), vehicle: saline 101 % of control | [1] 100 % of control | dose: 150.0 mg/kg/injection, schedule: Q01DX001 (ip), vehicle: saline 103 % of control | [2] 91 % of control | [3] 91 % of control

C=CCCC(=O)O
inactive: dose: 50.0 mg/kg/injection, schedule: Q01DX001 (ip), vehicle: saline with Tween-80 96 % of control | dose: 100.0 mg/kg/injection, schedule: Q01DX001 (ip), vehicle: saline with Tween-80 100 % of control | dose: 200.0 mg/kg/injection, schedule: Q01DX001 (ip), vehicle: saline with Tween-80 91 % of control

O=C(c1ccccc1)C1CC1c1ccccc1 (stereo unspecified)
inactive: dose: 75.0 mg/kg/injection, schedule: Q01DX001 (ip), vehicle: Klucel (hydroxypropylcellulose) (HPC) 96 % of control | dose: 75.0 mg/kg/injection, schedule: Q04DX002 (ip), vehicle: saline with Tween-80 105 % of control | [4] 101 % of control | dose: 150.0 mg/kg/injection, schedule: Q01DX001 (ip), vehicle: Klucel (hydroxypropylcellulose) (HPC) 100 % of control | dose: 150.0 mg/kg/injection, schedule: Q04DX002 (ip), vehicle: saline with Tween-80 91 % of control | [5] 93 % of control | dose: 300.0 mg/kg/injection, schedule: Q01DX001 (ip), vehicle: Klucel (hydroxypropylcellulose) (HPC) 102 % of control | dose: 300.0 mg/kg/injection, schedule: Q04DX002 (ip), vehicle: saline with Tween-80 98 % of control | [6] 103 % of control

CC1C2C=CC(C2)C1C(=O)O (stereo unspecified)
inactive: [7] 98 % of control | [8] 96 % of control and 97 % of control and 88 % of control | [9] 96 % of control | [10] 89 % of control and 92 % of control and 91 % of control | [11] 96 % of control | [12] 99 % of control and 97 % of control

CCOC(=O)CNC(=O)C(O)C(O)C(O)C(O)CO (stereo unspecified)
inactive: [4] 102 % of control | [5] 97 % of control | [6] 91 % of control

CCCCCCCCC(=O)N1CC1
inactive: dose: 50.0 mg/kg/injection, schedule: Q01DX009 (ip), vehicle: Klucel (hydroxypropylcellulose) (HPC) 94 % of control | dose: 50.0 mg/kg/injection, schedule: Q04DX003 (ip), vehicle: Klucel (hydroxypropylcellulose) (HPC) 105 % of control | [13] 94 % of control | dose: 100.0 mg/kg/injection, schedule: Q04DX003 (ip), vehicle: Klucel (hydroxypropylcellulose) (HPC) 96 % of control | [14] 96 % of control | dose: 200.0 mg/kg/injection, schedule: Q04DX003 (ip), vehicle: Klucel (hydroxypropylcellulose) (HPC) 98 % of control

C=CCOC(=O)C1(O)c2ccccc2NC(=S)N1CC=C (stereo unspecified)
inactive: [13] 104 % of control | [15] 97 % of control | [14] 93 % of control | [16] 97 % of control | dose: 400.0 mg/kg/injection, schedule: Q01DX009 (ip), vehicle: Klucel (hydroxypropylcellulose) (HPC) 93 % of control | [17] 100 % of control

C/C(=N\N=C(N)N)c1ccc(N2CCN(c3ccc(/C(C)=N/N=C(N)N)cc3)CC2)cc1
inactive: [7] 94 % of control | [9] 97 % of control | [11] 100 % of control

CCCCCCCCCCCCCCBr
inactive: dose: 37.5 mg/kg/injection, schedule: Q01DX Z (ip), vehicle: carboxymethylcellulose (CMC) 100 % of control | dose: 75.0 mg/kg/injection, schedule: Q01DX Z (ip), vehicle: carboxymethylcellulose (CMC) 100 % of control | dose: 100.0 mg/kg/injection, schedule: Q01DX001 (ip), vehicle: Klucel (hydroxypropylcellulose) (HPC) 107 % of control | dose: 150.0 mg/kg/injection, schedule: Q01DX Z (ip), vehicle: carboxymethylcellulose (CMC) 100 % of control | dose: 200.0 mg/kg/injection, schedule: Q01DX001 (ip), vehicle: Klucel (hydroxypropylcellulose) (HPC) 98 % of control | dose: 300.0 mg/kg/injection, schedule: Q01DX Z (ip), vehicle: carboxymethylcellulose (CMC) 91 % of control | dose: 400.0 mg/kg/injection, schedule: Q01DX001 (ip), vehicle: Klucel (hydroxypropylcellulose) (HPC) 94 % of control

CN=C(N)N(C)NCc1ccccc1
inactive: dose: 25.0 mg/kg/injection, schedule: Q04DX003 (ip), vehicle: saline 100 % of control | dose: 50.0 mg/kg/injection, schedule: Q04DX003 (ip), vehicle: saline 109 % of control | [1] 97 % of control | [4] 105 % of control

CCOC(=O)C(C(=O)OCC)c1c[n+]([O-])c2ccccc2c1[N+](=O)[O-]
inactive: [7] 93 % of control | [9] 98 % of control | [11] 98 % of control

COC(=O)C1(O)c2ccccc2-c2ccccc21
inactive: [7] 103 % of control | [9] 111 % of control | [11] 97 % of control

CC1CC(C(=O)O)C(Cc2ccc([N+](=O)[O-])cc2)C1=O (stereo unspecified)
inactive: [15] 93 % of control | [16] 93 % of control | [17] 89 % of control

CNC(=O)Oc1ccc(C(=O)OCCO)cc1
inactive: [1] 90 % of control | [2] 88 % of control | [3] 88 % of control

CNC(=S)N/N=C/CCC/C=N/NC(=S)NC
inactive: [18] 96 % of control | [7] 100 % of control | [9] 98 % of control

OC/C=C\CO
inactive: [1] 97 % of control and 103 % of control | [2] 97 % of control and 100 % of control | [3] 97 % of control and 105 % of control

COc1ccccc1/C=N/Nc1nnc(N/N=C/c2ccccc2OC)c2ccccc12
inactive: [18] 107 % of control | [7] 103 % of control | [9] 101 % of control | [11] 103 % of control

Nc1nc2nc3c(nc2c(=O)[nH]1)CN(c1ccc(C(=O)NC(CCC(=O)O)C(=O)O)cc1)C3=O (stereo unspecified)
inactive: [19] 93 % of control | [20] 95 % of control

CC(C)N(CCO)CC1C(c2ccccc2)C1c1ccccc1 (stereo unspecified)
inactive: dose: 25.0 mg/kg/injection, schedule: Q04DX002 (ip), vehicle: Klucel (hydroxypropylcellulose) (HPC) 97 % of control | dose: 50.0 mg/kg/injection, schedule: Q04DX002 (ip), vehicle: Klucel (hydroxypropylcellulose) (HPC) 100 % of control | [15] 97 % of control

CCCCOCc1c(CO)cnc(C)c1O
inactive: dose: 25.0 mg/kg/injection, schedule: Q04DX002 (ip), vehicle: saline 99 % of control | dose: 50.0 mg/kg/injection, schedule: Q04DX002 (ip), vehicle: saline 96 % of control | dose: 100.0 mg/kg/injection, schedule: Q04DX002 (ip), vehicle: saline 93 % of control and 96 % of control

COC(=O)c1c(C)cc(C)c(C(C)=O)c1O
inactive: [18] 96 % of control | [7] 102 % of control | [9] 104 % of control | [11] 107 % of control

COc1cc(N=Nc2ccccc2C(=O)O)ccc1O
inactive: [19] 96 % of control | [8] 96 % of control | [20] 104 % of control | [10] 101 % of control | [12] 101 % of control

FC(Cl)(Cl)c1nc2nc(Cl)c(Cl)nc2[nH]1
inactive: dose: 25.0 mg/kg/injection, schedule: Q01DX009 (ip), vehicle: water 95 % of control | dose: 50.0 mg/kg/injection, schedule: Q01DX009 (ip), vehicle: water 94 % of control | dose: 100.0 mg/kg/injection, schedule: Q01DX009 (ip), vehicle: water 97 % of control

CCC1CN1P1(=O)OCC(CC)([N+](=O)[O-])CO1 (stereo unspecified)
inactive: [7] 90 % of control | [9] 101 % of control | [11] 97 % of control

O=c1[nH]c(=O)c2ncsc2[nH]1
inactive: [8] 103 % of control | [10] 110 % of control

CN1CC(COC(=O)Cc2c[nH]c3ccccc23)C=C2c3cccc4[nH]cc(c34)CC21 (stereo unspecified)
inactive: dose: 25.0 mg/kg/injection, schedule: Q04DX003 (ip), vehicle: alcohol 98 % of control | dose: 50.0 mg/kg/injection, schedule: Q04DX003 (ip), vehicle: alcohol 96 % of control | dose: 100.0 mg/kg/injection, schedule: Q04DX003 (ip), vehicle: alcohol 102 % of control | dose: 200.0 mg/kg/injection, schedule: Q04DX003 (ip), vehicle: alcohol 96 % of control | dose: 400.0 mg/kg/injection, schedule: Q04DX003 (ip), vehicle: alcohol 96 % of control

O=S(=O)(NC1CCCC2C=CC=CC21)c1ccccc1 (stereo unspecified)
inactive: [19] 96 % of control | [8] 93 % of control | [20] 102 % of control | [10] 92 % of control | dose: 400.0 mg/kg/injection, schedule: Q01DX009 (ip), vehicle: saline with Tween-80 88 % of control | [12] 95 % of control

Reference: PubChem BioAssay AID248 (DTP/NCI, 2004)
